As usually defined, the inhibition is how much of the control response was suppressed. Broadly, the Ki is a measure of affinity in units of concentration, obtained from inhibition or displacement.

Among the data in ChEMBL document CHEMBL4507291 (2021) are residual activity, inhibition and Ki values, retold here.

The structures appear in SMILES notation.

For test [1], the target named is Serine/threonine-protein kinase DCLK1 (Homo sapiens) (UniProt O15075).
The target in test [2] is T1, Serine/threonine-protein kinase TBK1 (Homo sapiens) (UniProt Q9UHD2).
T1 sequence (whole entry): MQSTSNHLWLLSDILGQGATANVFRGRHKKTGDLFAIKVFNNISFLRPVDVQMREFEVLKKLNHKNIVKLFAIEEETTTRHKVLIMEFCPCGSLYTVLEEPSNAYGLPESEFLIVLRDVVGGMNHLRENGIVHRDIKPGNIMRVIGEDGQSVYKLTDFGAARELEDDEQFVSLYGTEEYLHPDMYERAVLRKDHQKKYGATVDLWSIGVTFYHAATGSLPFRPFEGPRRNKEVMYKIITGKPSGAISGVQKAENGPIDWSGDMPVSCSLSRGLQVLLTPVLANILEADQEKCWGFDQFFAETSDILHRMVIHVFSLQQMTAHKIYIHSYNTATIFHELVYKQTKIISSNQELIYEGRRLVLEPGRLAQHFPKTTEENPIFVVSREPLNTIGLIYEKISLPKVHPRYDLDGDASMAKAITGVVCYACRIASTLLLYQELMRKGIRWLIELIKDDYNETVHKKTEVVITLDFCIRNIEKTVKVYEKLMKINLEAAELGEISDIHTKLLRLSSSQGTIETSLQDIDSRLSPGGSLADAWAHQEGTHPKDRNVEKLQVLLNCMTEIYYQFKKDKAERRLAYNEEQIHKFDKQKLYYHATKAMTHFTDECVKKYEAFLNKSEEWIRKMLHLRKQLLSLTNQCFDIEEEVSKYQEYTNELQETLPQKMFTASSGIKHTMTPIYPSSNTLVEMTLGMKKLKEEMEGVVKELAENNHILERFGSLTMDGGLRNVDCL

The target of test [3] is Serine/threonine-protein kinase Nek3 (Homo sapiens) (UniProt P51956).
Test [4] deals with Serine/threonine-protein kinase RIO1 (Homo sapiens) (UniProt Q9BRS2).
Test [5] has as its target Tyrosine-protein kinase BTK (Homo sapiens) (UniProt Q06187).
In test [6] the target is Serine/threonine-protein kinase PRP4 homolog (Homo sapiens) (UniProt Q13523).
For test [7], the target named is T2, Alpha-2B adrenergic receptor (Homo sapiens) (UniProt P18089).
T2 sequence (whole entry): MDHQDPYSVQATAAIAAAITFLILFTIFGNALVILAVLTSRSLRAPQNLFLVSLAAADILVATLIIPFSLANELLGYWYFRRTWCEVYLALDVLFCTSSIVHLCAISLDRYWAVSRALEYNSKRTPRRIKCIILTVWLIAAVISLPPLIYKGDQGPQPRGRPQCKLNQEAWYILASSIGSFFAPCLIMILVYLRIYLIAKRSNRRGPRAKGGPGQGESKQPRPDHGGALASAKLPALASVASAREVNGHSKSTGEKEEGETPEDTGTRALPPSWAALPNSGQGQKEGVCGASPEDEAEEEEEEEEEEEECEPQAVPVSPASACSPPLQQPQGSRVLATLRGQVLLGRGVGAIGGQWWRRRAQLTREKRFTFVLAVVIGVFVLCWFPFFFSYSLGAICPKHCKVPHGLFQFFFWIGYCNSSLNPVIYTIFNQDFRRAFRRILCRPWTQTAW
Particulars: Compound concentration 10.0 uM.

Test [8] concerns the target Sigma intracellular receptor 2 (Homo sapiens, UniProt Q5BJF2). The experiment in a line: GPCRScan assay: inhibition of Sigma 2. Also noted: radioligand conc. used [nm] 5.0, parental cells HEKT.
For test [9], the target named is High affinity nerve growth factor receptor (Homo sapiens) (UniProt P04629).
In test [10] the target is Mitogen-activated protein kinase kinase kinase 9 (Homo sapiens) (UniProt P80192).
In test [11] the target is Serine/threonine-protein kinase WNK1 (Homo sapiens) (UniProt Q9H4A3).
Test [12] deals with T3, Mitogen-activated protein kinase kinase kinase kinase 2 (Homo sapiens) (UniProt Q12851).
T3 sequence (whole entry): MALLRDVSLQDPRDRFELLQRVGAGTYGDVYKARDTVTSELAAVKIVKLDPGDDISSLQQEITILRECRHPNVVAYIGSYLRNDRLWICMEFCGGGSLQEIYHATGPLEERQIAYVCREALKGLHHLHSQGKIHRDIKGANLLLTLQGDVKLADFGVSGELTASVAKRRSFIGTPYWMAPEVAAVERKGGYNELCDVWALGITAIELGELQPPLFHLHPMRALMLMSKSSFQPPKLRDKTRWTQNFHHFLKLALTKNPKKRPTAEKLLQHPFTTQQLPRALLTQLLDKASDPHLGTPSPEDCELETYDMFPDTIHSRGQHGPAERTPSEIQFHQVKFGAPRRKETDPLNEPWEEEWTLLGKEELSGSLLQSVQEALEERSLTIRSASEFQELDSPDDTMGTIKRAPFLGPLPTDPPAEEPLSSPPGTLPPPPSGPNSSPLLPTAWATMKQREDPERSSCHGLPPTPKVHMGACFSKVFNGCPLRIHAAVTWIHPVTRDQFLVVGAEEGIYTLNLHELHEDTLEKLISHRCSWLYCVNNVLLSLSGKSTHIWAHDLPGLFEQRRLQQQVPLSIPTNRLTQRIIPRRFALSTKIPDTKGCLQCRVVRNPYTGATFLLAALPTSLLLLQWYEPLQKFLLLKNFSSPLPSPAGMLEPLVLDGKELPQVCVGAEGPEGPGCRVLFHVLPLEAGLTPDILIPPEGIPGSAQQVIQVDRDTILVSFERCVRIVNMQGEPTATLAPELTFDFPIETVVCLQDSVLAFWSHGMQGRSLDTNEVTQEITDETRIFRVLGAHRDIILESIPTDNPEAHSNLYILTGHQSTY

Test [13] addresses 5-hydroxytryptamine receptor 2B (Homo sapiens, UniProt P41595). Conditions: Compound concentration 10.0 uM.
For test [14], the target named is Serine/threonine-protein kinase 17B (Homo sapiens) (UniProt O94768).
Test [15] addresses Tyrosine-protein kinase receptor Tie-1 (Homo sapiens) (UniProt P35590).
Test [16] deals with Ribosomal protein S6 kinase alpha-3 (Homo sapiens) (UniProt P51812).
The test system of test [17] is Tyrosine-protein kinase ABL1 (Homo sapiens), P00519 [F317L].
Test [18] has as its target Serine/threonine-protein kinase SIK2 (Homo sapiens) (UniProt Q9H0K1).
Setting [19] is: Compound concentration 1000.0 nM.
[20] abbreviates: Compound concentration 100.0 nM.

Chain of Serine/threonine-protein kinase 17B (Homo sapiens) (O94768 whole entry): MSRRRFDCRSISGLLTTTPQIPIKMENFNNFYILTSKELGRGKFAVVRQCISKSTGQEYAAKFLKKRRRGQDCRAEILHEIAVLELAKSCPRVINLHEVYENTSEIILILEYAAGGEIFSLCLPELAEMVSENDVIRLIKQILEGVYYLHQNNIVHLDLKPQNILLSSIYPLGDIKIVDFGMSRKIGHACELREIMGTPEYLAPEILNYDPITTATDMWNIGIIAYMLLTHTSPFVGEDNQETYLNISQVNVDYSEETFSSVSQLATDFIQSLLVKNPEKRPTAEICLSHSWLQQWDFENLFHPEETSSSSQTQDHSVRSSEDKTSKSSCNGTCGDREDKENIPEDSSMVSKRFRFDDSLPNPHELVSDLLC
Chain of High affinity nerve growth factor receptor (Homo sapiens) (P04629 33-796 limits assumed): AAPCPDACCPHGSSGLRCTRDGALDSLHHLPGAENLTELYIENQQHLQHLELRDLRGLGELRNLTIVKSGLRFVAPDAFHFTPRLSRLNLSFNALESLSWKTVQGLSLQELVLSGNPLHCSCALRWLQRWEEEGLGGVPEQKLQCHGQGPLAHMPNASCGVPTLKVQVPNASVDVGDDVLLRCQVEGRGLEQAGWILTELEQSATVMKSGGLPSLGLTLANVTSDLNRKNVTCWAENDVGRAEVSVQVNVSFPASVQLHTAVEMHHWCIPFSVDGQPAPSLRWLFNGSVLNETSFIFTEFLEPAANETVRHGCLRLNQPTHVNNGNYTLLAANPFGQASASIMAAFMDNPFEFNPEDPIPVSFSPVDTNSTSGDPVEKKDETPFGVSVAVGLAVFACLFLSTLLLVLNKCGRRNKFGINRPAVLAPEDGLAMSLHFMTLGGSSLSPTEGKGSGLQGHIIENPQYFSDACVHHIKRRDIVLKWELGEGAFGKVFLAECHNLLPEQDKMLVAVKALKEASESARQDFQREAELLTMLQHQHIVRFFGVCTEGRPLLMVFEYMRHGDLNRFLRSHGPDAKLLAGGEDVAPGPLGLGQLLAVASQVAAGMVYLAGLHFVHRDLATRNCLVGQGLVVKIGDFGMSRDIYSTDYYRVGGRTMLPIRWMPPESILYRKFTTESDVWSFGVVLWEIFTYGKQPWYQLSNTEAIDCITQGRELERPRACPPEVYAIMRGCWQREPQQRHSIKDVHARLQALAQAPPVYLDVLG
Chain of Serine/threonine-protein kinase PRP4 homolog (Homo sapiens) (Q13523 whole entry): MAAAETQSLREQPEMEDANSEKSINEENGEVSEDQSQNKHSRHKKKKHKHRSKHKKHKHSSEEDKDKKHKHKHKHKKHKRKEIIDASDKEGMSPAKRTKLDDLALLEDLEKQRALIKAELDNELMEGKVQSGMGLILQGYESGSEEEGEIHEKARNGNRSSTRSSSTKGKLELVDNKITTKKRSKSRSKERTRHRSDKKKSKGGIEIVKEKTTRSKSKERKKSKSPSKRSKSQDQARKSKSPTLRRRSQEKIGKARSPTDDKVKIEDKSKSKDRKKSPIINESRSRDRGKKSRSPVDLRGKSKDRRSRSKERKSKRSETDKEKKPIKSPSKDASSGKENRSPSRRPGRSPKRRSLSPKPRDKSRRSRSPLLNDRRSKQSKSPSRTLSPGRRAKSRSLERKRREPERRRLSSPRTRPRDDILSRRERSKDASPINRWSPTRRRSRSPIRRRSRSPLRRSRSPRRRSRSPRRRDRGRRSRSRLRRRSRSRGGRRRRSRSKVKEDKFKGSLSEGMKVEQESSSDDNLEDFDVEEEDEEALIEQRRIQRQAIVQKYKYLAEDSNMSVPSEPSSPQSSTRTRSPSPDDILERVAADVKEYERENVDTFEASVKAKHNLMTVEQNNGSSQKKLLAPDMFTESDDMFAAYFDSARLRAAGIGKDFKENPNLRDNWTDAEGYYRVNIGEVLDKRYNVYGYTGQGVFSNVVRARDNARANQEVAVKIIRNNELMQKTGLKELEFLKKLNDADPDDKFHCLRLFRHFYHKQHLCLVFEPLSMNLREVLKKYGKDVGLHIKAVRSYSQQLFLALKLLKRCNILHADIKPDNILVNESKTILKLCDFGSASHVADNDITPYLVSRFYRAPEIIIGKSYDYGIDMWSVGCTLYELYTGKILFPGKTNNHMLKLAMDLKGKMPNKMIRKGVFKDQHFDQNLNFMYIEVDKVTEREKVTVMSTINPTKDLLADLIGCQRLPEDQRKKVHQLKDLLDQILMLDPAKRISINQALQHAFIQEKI
Chain of Tyrosine-protein kinase receptor Tie-1 (Homo sapiens) (P35590 whole entry): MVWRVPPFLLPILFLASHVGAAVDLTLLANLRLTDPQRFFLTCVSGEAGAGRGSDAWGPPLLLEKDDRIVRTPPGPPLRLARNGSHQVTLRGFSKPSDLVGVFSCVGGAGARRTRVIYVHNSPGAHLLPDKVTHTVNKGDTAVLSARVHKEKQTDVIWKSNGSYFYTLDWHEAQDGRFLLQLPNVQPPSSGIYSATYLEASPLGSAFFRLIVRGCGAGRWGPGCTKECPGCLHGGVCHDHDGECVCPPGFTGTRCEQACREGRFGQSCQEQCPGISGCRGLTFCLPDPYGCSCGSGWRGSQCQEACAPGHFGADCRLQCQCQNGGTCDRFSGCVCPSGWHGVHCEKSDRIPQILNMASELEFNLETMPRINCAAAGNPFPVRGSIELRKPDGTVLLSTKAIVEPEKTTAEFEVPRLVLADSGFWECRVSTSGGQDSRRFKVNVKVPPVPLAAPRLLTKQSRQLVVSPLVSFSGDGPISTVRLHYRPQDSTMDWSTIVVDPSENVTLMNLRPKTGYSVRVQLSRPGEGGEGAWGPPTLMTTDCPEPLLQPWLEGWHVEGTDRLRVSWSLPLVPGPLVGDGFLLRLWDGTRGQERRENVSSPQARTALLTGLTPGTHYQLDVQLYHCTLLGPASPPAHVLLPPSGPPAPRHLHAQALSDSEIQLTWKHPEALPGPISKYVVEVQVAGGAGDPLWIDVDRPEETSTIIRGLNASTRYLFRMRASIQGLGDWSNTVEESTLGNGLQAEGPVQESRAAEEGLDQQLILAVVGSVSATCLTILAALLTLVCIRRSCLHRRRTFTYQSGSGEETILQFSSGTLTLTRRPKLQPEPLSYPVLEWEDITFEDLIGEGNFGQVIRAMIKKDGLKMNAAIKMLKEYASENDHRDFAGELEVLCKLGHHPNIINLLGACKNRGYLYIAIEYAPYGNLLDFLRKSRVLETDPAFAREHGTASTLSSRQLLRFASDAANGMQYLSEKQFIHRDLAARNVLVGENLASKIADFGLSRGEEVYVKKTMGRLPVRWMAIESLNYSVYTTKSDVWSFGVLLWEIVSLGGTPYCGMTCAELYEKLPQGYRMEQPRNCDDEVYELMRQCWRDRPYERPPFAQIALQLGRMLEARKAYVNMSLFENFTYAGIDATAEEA
Chain of Serine/threonine-protein kinase SIK2 (Homo sapiens) (Q9H0K1 whole entry, looked up): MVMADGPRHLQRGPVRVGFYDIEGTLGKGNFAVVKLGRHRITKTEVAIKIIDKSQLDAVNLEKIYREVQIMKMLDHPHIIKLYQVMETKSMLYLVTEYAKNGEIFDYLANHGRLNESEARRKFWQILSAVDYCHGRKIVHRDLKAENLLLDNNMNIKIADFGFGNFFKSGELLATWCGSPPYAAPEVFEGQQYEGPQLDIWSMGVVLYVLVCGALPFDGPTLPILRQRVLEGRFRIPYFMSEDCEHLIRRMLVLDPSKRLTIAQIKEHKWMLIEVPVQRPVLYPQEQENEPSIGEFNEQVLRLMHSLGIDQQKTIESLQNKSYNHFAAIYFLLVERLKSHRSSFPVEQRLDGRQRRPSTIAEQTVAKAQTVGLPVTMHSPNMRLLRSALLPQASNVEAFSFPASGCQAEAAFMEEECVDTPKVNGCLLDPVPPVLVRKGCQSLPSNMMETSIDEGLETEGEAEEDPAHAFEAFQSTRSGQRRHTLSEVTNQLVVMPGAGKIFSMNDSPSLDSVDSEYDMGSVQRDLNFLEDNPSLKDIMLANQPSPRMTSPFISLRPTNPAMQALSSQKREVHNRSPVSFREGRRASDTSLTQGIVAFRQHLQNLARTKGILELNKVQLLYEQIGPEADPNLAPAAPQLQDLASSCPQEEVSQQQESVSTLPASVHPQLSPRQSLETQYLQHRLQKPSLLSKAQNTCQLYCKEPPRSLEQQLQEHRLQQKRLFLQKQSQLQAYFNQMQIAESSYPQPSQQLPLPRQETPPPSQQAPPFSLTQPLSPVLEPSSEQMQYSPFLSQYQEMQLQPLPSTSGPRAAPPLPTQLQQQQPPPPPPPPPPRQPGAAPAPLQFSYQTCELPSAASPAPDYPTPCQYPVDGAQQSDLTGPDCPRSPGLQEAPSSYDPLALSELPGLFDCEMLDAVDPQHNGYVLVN
Chain of Serine/threonine-protein kinase RIO1 (Homo sapiens) (Q9BRS2 whole entry): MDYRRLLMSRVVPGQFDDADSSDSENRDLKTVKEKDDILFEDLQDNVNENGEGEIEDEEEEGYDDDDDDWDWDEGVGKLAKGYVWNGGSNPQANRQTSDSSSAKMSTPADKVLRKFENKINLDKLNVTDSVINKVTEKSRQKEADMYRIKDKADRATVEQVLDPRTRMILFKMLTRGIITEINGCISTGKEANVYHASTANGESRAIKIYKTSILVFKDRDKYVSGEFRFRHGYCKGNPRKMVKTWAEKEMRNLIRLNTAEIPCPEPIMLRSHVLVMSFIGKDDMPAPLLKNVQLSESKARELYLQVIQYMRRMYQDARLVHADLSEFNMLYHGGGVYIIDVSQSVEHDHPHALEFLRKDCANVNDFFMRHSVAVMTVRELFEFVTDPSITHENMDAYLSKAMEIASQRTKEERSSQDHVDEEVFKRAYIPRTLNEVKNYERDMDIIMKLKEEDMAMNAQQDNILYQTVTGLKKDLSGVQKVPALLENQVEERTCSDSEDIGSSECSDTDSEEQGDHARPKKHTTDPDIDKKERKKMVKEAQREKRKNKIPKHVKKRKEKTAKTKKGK
Chain of Sigma intracellular receptor 2 (Q5BJF2 whole entry): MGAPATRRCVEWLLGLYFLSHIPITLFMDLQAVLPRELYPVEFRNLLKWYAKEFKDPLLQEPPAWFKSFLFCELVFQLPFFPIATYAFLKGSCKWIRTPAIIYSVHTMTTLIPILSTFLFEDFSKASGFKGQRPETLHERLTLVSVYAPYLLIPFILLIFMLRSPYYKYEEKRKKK

Take `C[C@@H]1CN(c2cc(-c3nn(C)c4ccc(OC5(C)CC5)cc34)ncn2)C[C@H](C)O1` [MLi-2-NC]: the residual activity in test [1] (setting [19]) is 64%; in [2] (setting [19]), 75%; in test [3] (setting [19]), 99%; in test [4] (setting [19]), 89%; in test [5] (setting [19]), 80%; in test [6] (setting [19]), 100%. In addition, the residual activity in test [9] (setting [19]) is 76%; in test [10] (setting [19]) it was 100%; in [11] (setting [19]), 82%; in [12] (setting [19]) it was 81%; in test [14] (setting [19]) it was 100%; in test [15] (setting [19]) it was 92%. The residual activity in test [16] (setting [19]) is 82%; in test [17] (setting [19]) it was 86%; in test [18] (setting [19]) it was 100%. In addition, the inhibition in test [7] is 27.2%; in [13], 26.7%. Moreover, in test [8], the Ki came to 1070 nM.

As for `C[C@@H]1CN(c2cc(-c3n[nH]c4ccc(OC5(C)CC5)cc34)ncn2)C[C@H](C)O1` [MLi-2], the residual activity in [1] (setting [20]) is 81%; in test [2] (setting [20]), 68%; in test [3] (setting [20]), 76%; in test [4] (setting [20]), 100%; in test [5] (setting [20]), 73%; in test [6] (setting [20]), 83%. In addition, the residual activity is 73% in test [9] (setting [20]); 100% in test [10] (setting [20]); 89% in test [11] (setting [20]); 76% in test [12] (setting [20]); 96% in [14] (setting [20]); 67% in test [15] (setting [20]). Besides, the residual activity in test [16] (setting [20]) was 73%; in test [17] (setting [20]), 82%; in test [18] (setting [20]), 87%. Besides, the inhibition is 6.1% in test [7] and 41.4% in [13]. In [8], the Ki was 4600 nM.
